# Measured values published in PubChem BioAssay (NCI).
#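 Interpolation was linear, between the two tested concentrations surrounding the appropriate level; five concentrations were tested over 48 hours in 96-well plates. GI50 marks 50% less growth. Definition used: TGI = concentration required for complete inhibition of growth.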
# Tested on: MDA-MB-468 breast
# Assay: NCI tumour cell line growth inhibition, 48 h
SMILES,GI50 [µM],TGI [µM]
Cc1nc(-c2ccccc2)n2nc(NCCCN3CCOCC3)ncc12,> 5.33,> 25
CC(=O)Oc1ccc(C23c4ccccc4C2(OC(C)=O)c2cc(OC(C)=O)ccc23)cc1 (centres undefined),0.57,5.02
COc1cccc(/C(C#N)=C/c2nc3c(N4CCOCC4)nc(Cl)nc3n2C)c1,0.497,1.87
O=C(NOC[C@H](O)CO)c1ccc(F)c(F)c1Nc1ccc(I)cc1F,13.9,> 100
C[C@@H]1C[C@H](C)CN(S(=O)(=O)c2ccc3c(NO)c4ccc(S(=O)(=O)N5C[C@H](C)C[C@H](C)C5)cc4c(N=O)c3c2)C1,0.154,0.312
COc1ccc(/C=C/C(=O)/C=C/c2cc3ccccc3[nH]c2=O)cc1,2.32,6.59
CS(=O)(=O)CCNCc1cc(-c2cc3c(Nc4ccc(OCc5cccc(F)c5)c(Cl)c4)ncnc3s2)cs1,0.569,4.13
